Values of other authors, collected in US20110159092A1 (MICRO LABS LIMITED, priority 2009, published 2011).

What was measured:
bacteria = conditions: background statement
enterococci = conditions: against enterococci
staphylococci = conditions: against staphylococci
streptococci = conditions: majority of strains

For `CC(=O)NC[C@H]1CN(c2ccc(N3CCOCC3)c(F)c2)C(=O)O1` [Linezolid, (S)-N-({3-[3-fluoro-4-(morpholin-4-yl)phenyl]-2-oxo-1,3-oxazolidin-5-yl}methyl)acetamide], the MIC (bacteria) is listed as 1 to 4 µg/mL, the time-kill result (enterococci) is listed as “bacteriostatic” and the time-kill result (staphylococci) is listed as “bacteriostatic”. The time-kill result (streptococci) was “bactericidal”.
